Test [1] has as its system patients with persistent atrial fibrillation. The following applies: cited from earlier work; for effectiveness in increasing the time to a recurrence of atrial fibrillation relative to sotalol / increasing the time to a recurrence of atrial fibrillation: P<0.001; for number of strokes per 100 patient-years of follow-up: persistent atrial fibrillation, placebo 1.91, calculated from the article of Singh et al, page 1866; for increasing the time to a recurrence of atrial fibrillation: versus placebo.

The subject of test [2] is patients who developed permanent atrial fibrillation/flutter. Put plainly: prospective, multinational, double-blind, randomized, multi-center, placebo-controlled, parallel group trial of dronedarone hydrochloride. The format is in vivo. The protocol: • Patients in permanent atrial fibrillation • Patients in unstable hemodynamic condition such as acute pulmonary edema within 12 hours prior to start of study medication; cardiogenic shock; treatment with IV pressor agents; patients on respirator; congestive heart failure of stage NYHA IV within the last 4 weeks; uncorrected, hemodynamically significant primary obstructive valvular disease; hemodynamically significant obstructive cardomyopathy; a cardiac operation or revascularization procedure within 4 weeks preceding randomization • Planned major non-cardiac or cardiac surgery or procedures including surgery for valvular heart disease, coronary artery bypass graft (CABG), percutaneous coronary intervention (PCI), or on urgent cardiac transplantation list • Acute myocarditis or constrictive pericarditis • Bradycardia < 50 bpm and/or PR-interval ≥ 0.28 sec on the last 12-lead ECG. • Significant sinus node disease (documented pause of 3 seconds or more) or 2nd or 3rd degree atrioventricular block (AV-block) unless treated with a pacemaker.

The next test deals with stroke. The settings on record: ATHENA trial; cited from earlier work.

SMILES strings stand for the structures. Where a name gives a salt, the structure may show the parent alone. Read-outs that look alike come from different tables or passages of the source.

For the compound `CCCCc1oc2ccccc2c1C(=O)c1cc(I)c(OCCN(CC)CC)c(I)c1` [amiodarone], the “effectiveness in increasing the time to a recurrence of atrial fibrillation relative to sotalol” value in test [1] (analysis according to the treatment actually received) is “four times as effective”. The “effectiveness in increasing the time to a recurrence of atrial fibrillation relative to sotalol” value in test [1] (intention-to-treat analysis) was “six times as effective as sotalol”. Besides, in test [1], the “number of strokes per 100 patient-years of follow-up” value was 2.06 per 100 patient-years and the “increasing the time to a recurrence of atrial fibrillation” value is “significantly more effective than placebo”.

Regarding `CCCCc1oc2ccc(NS(C)(=O)=O)cc2c1C(=O)c1ccc(OCCCN(CCCC)CCCC)cc1` [dronedarone hydrochloride], the “events (stroke, Acute Coronary Syndrome (ACS) or cardiovascular death)” value in test [2] (among the 178 patients who developed permanent atrial fibrillation/flutter on dronedarone hydrochloride, placebo group 24 events (295 patients)) came to 12 events. The “Calculated relative risk of stroke, Acute Coronary Syndrome (ACS) or cardiovascular death” value in test [2] (dronedarone versus placebo, Cox's proportional hazard model, patients who developed permanent atrial fibrillation/flutter) is given as 0.805. The “patients developed permanent atrial fibrillation/flutter” value in test [2] (of 2301 patients treated with dronedarone hydrochloride (400 mg of base, one tablet morning and evening, 12 to 30 months), placebo group 295) is listed as 178 patients. For the same compound, the “decrease of the relative risk of stroke, Acute Coronary Syndrome (ACS) or cardiovascular death” value in test [2] (x = 1-RR, versus placebo, patients who developed permanent atrial fibrillation/flutter) was found to be 20%.

Take `CCCCc1oc2ccc(NS(C)(=O)=O)cc2c1C(=O)c1ccc(OCCCN(CCCC)CCCC)cc1` [dronedarone, 2-n-butyl-3-[4-(3-di-n-butylaminopropoxy)benzoyl]-5-methylsulfonamido-benzofuranne]: in the test with stroke, the incidence of stroke entry was “ability to reduce the incidence of stroke”.

As to `CC(C)NCC(O)c1ccc(NS(C)(=O)=O)cc1` (centres unmarked) [sotalol], in test [1], the “number of strokes per 100 patient-years of follow-up” value is recorded as 2.71 per 100 patient-years and the “increasing the time to a recurrence of atrial fibrillation” value is recorded as “significantly more effective than placebo”.

The values are drawn from patent EP2387997A1, “Use of dronedarone for the preparation of a medicament for the prevention of cardiovascular events in patients who developed permanent atrial fibrillation throughout the period the dronedarone is administered” (SANOFI, priority 2010, dated 2011).
